Earlier results, collected in US20220175799A1, “COMPOSITIONS HAVING THE ABILITY TO PROMOTE HEALTHY CHOLESTEROL LEVELS” (Brilliant Lab LLC, priority 2020, published 2022).
Where two headings read alike, the source gives them in different places.

How the values were obtained:
[1] = not given; remark: listed apart in the source
[2] = not given; remark: listed apart in the source

In the case of `CC(C)c1c(C(=O)Nc2ccccc2)c(-c2ccccc2)c(-c2ccc(F)cc2)n1CC[C@@H](O)C[C@@H](O)CC(=O)O` [Atorvastatin], the “% LDL-C Reduction” value (statin dose 10 mg) is given as 38%, the “% LDL-C Reduction” value (statin dose 20 mg) is given as 42% and the “% LDL-C Reduction” value (statin dose 40 mg) is given as 52%. For the same compound, the “% LDL-C Reduction” value (statin dose 80 mg) was 60%, the “Reduction in LDL-C levels” value ([1]; statin daily oral dose 5 mg) was 58.3917 mg/dL and the “Reduction in LDL-C levels” value ([1]; statin daily oral dose 10 mg) was 69.2193 mg/dL. The “Reduction in LDL-C levels” value ([1]; statin daily oral dose 20 mg) was 80.0469 mg/dL, the “Reduction in LDL-C levels” value ([1]; statin daily oral dose 40 mg) was 91.2612 mg/dL and the “Reduction in LDL-C levels” value ([1]; statin daily oral dose 80 mg) was 102.0888 mg/dL.

For `CC(C)n1c(/C=C/C(O)CC(O)CC(=O)O)c(-c2ccc(F)cc2)c2ccccc21` (stereo not shown) [Fluvastatin], the “% LDL-C Reduction” value (statin dose 20 mg) is given as 20%, the “% LDL-C Reduction” value (statin dose 40 mg) is given as 24% and the “% LDL-C Reduction” value (statin dose 80 mg) is given as 34%. The “Reduction in LDL-C levels” value ([1]; statin daily oral dose 5 mg) was 17.7882 mg/dL, the “Reduction in LDL-C levels” value ([1]; statin daily oral dose 10 mg) was 28.6158 mg/dL and the “Reduction in LDL-C levels” value ([1]; statin daily oral dose 20 mg) was 39.4434 mg/dL. For the same compound, the “Reduction in LDL-C levels” value ([1]; statin daily oral dose 40 mg) was 50.271 mg/dL and the “Reduction in LDL-C levels” value ([1]; statin daily oral dose 80 mg) was 61.0986 mg/dL.

For `CC[C@H](C)C(=O)O[C@H]1C[C@@H](C)C=C2C=C[C@H](C)[C@H](CC[C@@H]3C[C@@H](O)CC(=O)O3)[C@H]21` [Lovastatin], the “% LDL-C Reduction” value (statin dose 10 mg) is given as 20%, the “% LDL-C Reduction” value (statin dose 20 mg) is given as 26% and the “% LDL-C Reduction” value (statin dose 40 mg) is given as 30%. For the same compound, the “% LDL-C Reduction” value (statin dose 80 mg) was 38%, the “Reduction in LDL-C levels” value ([1]; statin daily oral dose 10 mg) was 39.4434 mg/dL and the “Reduction in LDL-C levels” value ([1]; statin daily oral dose 20 mg) was 54.138 mg/dL. The “Reduction in LDL-C levels” value ([1]; statin daily oral dose 40 mg) was 68.4459 mg/dL and the “Reduction in LDL-C levels” value ([1]; statin daily oral dose 80 mg) was 83.1405 mg/dL.

For `O=C(O)C[C@H](O)C[C@H](O)/C=C/c1c(C2CC2)nc2ccccc2c1-c1ccc(F)cc1` [Pitavastatin], the “% LDL-C Reduction” value (statin dose 1 mg) is listed as 30%, the “% LDL-C Reduction” value (statin dose 2 mg) is listed as 32% and the “% LDL-C Reduction” value (statin dose 4 mg) is listed as 42%.

For `CC(C)c1nc(N(C)S(C)(=O)=O)nc(-c2ccc(F)cc2)c1/C=C/[C@@H](O)C[C@@H](O)CC(=O)O` [Rosuvastatin], the “% LDL-C Reduction” value (statin dose 5 mg) is given as 44%, the “% LDL-C Reduction” value (statin dose 10 mg) is given as 52% and the “% LDL-C Reduction” value (statin dose 20 mg) is given as 56%. For the same compound, the “% LDL-C Reduction” value (statin dose 40 mg) was 63%, the “Reduction in LDL-C levels” value ([1]; statin daily oral dose 5 mg) was 71.1528 mg/dL and the “Reduction in LDL-C levels” value ([1]; statin daily oral dose 10 mg) was 80.4336 mg/dL. The “Reduction in LDL-C levels” value ([1]; statin daily oral dose 20 mg) was 89.7144 mg/dL, the “Reduction in LDL-C levels” value ([1]; statin daily oral dose 40 mg) was 98.9952 mg/dL and the “Reduction in LDL-C levels” value ([1]; statin daily oral dose 80 mg) was 108.276 mg/dL.

In the case of `COc1ccc2cc3[n+](cc2c1OC)CCc1cc2c(cc1-3)OCO2` [berberine], the “reduction of LDL-cholesterol in subjects” value ([2]; 1 g daily) is given as about 16.4% and the “reduction of total cholesterol in subjects” value ([2]; 1 g daily) is given as “about 11.6%”.

In the case of `CC(C)=CCC/C(C)=C/C=C/C(C)=C/C=C/C(C)=C/C=C/C=C(C)/C=C/C=C(C)/C=C/C=C(\C)CCC=C(C)C` [lycopene], the “reduction of LDL-cholesterol in subjects” value ([2]; 22 mg daily) is given as “about 3.7 mg/dl”.
